Source: ChEMBL document CHEMBL1201862, “PubChem BioAssay data set” (2004)
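Grown in 96-well plates, cells were treated for 48 hours with each compound at five concentrations. Insufficient inhibition: endpoint recorded as highest concentration tested. Here, GI50 denotes the concentration required for 50% inhibition of growth.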 Active and inactive are the calls of the source. Cut-off read from the data, not from the text of the source: active = GI50 up to about 1.1 µM and inactive = higher.

Assays:
Experiment in all cases: inhibition of tumour cell growth, NCI panel, 48 h
[1] = tested on: HOP-62
[2] = tested on: MDA-MB-435
[3] = tested on: SK-OV-3
[4] = tested on: HT-29
[5] = tested on: CAKI-1
[6] = tested on: RPMI-8226
[7] = tested on: NCI/ADR-RES
[8] = tested on: OVCAR-3
[9] = tested on: HCC 2998
[10] = tested on: SK-MEL-5
[11] = tested on: SK-MEL-28
[12] = tested on: UO-31
[13] = tested on: SNB-19
[14] = tested on: OVCAR-4
[15] = tested on: MOLT-4
[16] = tested on: SF-295
[17] = tested on: NCI-H226
[18] = tested on: HCT-116
[19] = tested on: LOX IMVI
[20] = tested on: NCI-H23
[21] = tested on: SR
[22] = tested on: TK-10
[23] = tested on: NCI-H522
[24] = tested on: MDA-N
[25] = tested on: COLO 205
[26] = tested on: UACC-257
[27] = tested on: A549
[28] = tested on: SN12C
[29] = tested on: ACHN
[30] = tested on: SW-620
[31] = tested on: HL-60
[32] = tested on: SNB-75
[33] = tested on: HCT-15
[34] = tested on: HOP-92
[35] = tested on: IGROV-1
[36] = tested on: SK-MEL-2
[37] = tested on: T47D
[38] = tested on: NCI-H460
[39] = tested on: MDA-MB-231
[40] = tested on: OVCAR-8
[41] = tested on: K562
[42] = tested on: DU-145
[43] = tested on: Hs-578T
[44] = tested on: PC-3
[45] = tested on: OVCAR-5
[46] = tested on: M14
[47] = tested on: U-251
[48] = tested on: CCRF-CEM
[49] = tested on: MCF7
[50] = tested on: 786-0
[51] = tested on: KM12
[52] = tested on: SF-539
[53] = tested on: EKVX
[54] = tested on: SF-268
[55] = tested on: UACC-62

c1ccc(/N=C(\N2CCCCC2)N(CCN2CCCCC2)c2ccccc2)cc1
GI50 [1]: 1.43 µM (inactive) | GI50 [2]: 1.51 µM (inactive) | GI50 [3]: 1.65 µM (inactive) | GI50 [4]: 0.141 µM (active) | GI50 [5]: 3.15 µM (inactive) | GI50 [6]: 0.192 µM (active) | GI50 [7]: 1.65 µM (inactive) | GI50 [8]: 0.401 µM (active) | GI50 [9]: 1.69 µM (inactive) | GI50 [10]: 1.36 µM (inactive) | GI50 [11]: 1.99 µM (inactive) | GI50 [12]: 1.68 µM (inactive) | GI50 [13]: 3.78 µM (inactive) | GI50 [14]: 1.2 µM (inactive) | GI50 [15]: 0.279 µM (active) | GI50 [16]: 1.04 µM (active) | GI50 [17]: 2.62 µM (inactive) | GI50 [18]: 0.0736 µM (active) | GI50 [19]: 0.622 µM (active) | GI50 [20]: 0.773 µM (active) | GI50 [21]: 0.28 µM (active) | GI50 [22]: 2.96 µM (inactive) | GI50 [23]: 0.428 µM (active) | GI50 [24]: 0.718 µM (active) | GI50 [25]: 0.658 µM (active) | GI50 [26]: 1.82 µM (inactive) | GI50 [27]: 2.11 µM (inactive) | GI50 [28]: 2.11 µM (inactive) | GI50 [29]: 1.58 µM (inactive) | GI50 [30]: 1.8 µM (inactive) | GI50 [31]: 0.277 µM (active) | GI50 [32]: 2.28 µM (inactive) | GI50 [33]: 1.68 µM | GI50 [34]: 1.44 µM (inactive) | GI50 [35]: 0.396 µM (active) | GI50 [36]: 1.76 µM (inactive) | GI50 [37]: 1.08 µM (active) | GI50 [38]: 0.274 µM (active) | GI50 [39]: 1.39 µM (inactive) | GI50 [40]: 2.01 µM (inactive) | GI50 [41]: 0.254 µM (active) | GI50 [42]: 2.1 µM (inactive) | GI50 [43]: 0.944 µM (active) | GI50 [44]: 0.53 µM (active) | GI50 [45]: 1.82 µM (inactive) | GI50 [46]: 1.5 µM (inactive) | GI50 [47]: 1.39 µM (inactive) | GI50 [48]: 1 µM (active)

CC1C(c2cc(C(C)(C)C)c(O)c(C(C)(C)C)c2)c2cc3c(cc2OC1N1CCOCC1)OCO3 (stereo not given)
GI50 [1]: 16.9 µM (inactive) | GI50 [2]: 24 µM (inactive) | GI50 [4]: 19.2 µM (inactive) | GI50 [6]: 26.9 µM (inactive) | GI50 [7]: 27.4 µM (inactive) | GI50 [8]: 15.8 µM (inactive) | GI50 [9]: 12.9 µM (inactive) | GI50 [10]: 17.1 µM (inactive) | GI50 [11]: 15.6 µM (inactive) | GI50 [12]: 12.4 µM (inactive) | GI50 [13]: 15.7 µM (inactive) | GI50 [15]: > 100 µM (inactive) | GI50 [16]: 15.3 µM (inactive) | GI50 [49]: 21.2 µM (inactive) | GI50 [18]: 13.7 µM (inactive) | GI50 [19]: 20.3 µM (inactive) | GI50 [50]: 13.7 µM (inactive) | GI50 [20]: 28.1 µM (inactive) | GI50 [21]: 64.7 µM (inactive) | GI50 [22]: 15.5 µM (inactive) | GI50 [51]: 43.9 µM (inactive) | GI50 [23]: 21.2 µM (inactive) | GI50 [24]: 26.9 µM (inactive) | GI50 [25]: 71 µM (inactive) | GI50 [52]: 12.9 µM (inactive) | GI50 [26]: 34.6 µM (inactive) | GI50 [27]: 16.6 µM (inactive) | GI50 [28]: 33.8 µM (inactive) | GI50 [29]: 7.69 µM (inactive) | GI50 [30]: 42.2 µM (inactive) | GI50 [32]: 4.34 µM (inactive) | GI50 [53]: 23.9 µM (inactive) | GI50 [33]: > 10 µM | GI50 [35]: 36.2 µM (inactive) | GI50 [54]: 17.4 µM (inactive) | GI50 [36]: 23.7 µM (inactive) | GI50 [37]: 21.4 µM (inactive) | GI50 [38]: 21.6 µM (inactive) | GI50 [40]: 19.1 µM (inactive) | GI50 [41]: 27.1 µM (inactive) | GI50 [42]: 30.1 µM (inactive) | GI50 [43]: 3.13 µM (inactive) | GI50 [44]: 14.2 µM (inactive) | GI50 [45]: > 100 µM (inactive) | GI50 [55]: 26.4 µM (inactive) | GI50 [46]: 17.5 µM (inactive) | GI50 [48]: > 100 µM (inactive)
